In PubChem BioAssay AID2060506 (Molecular Pharmacology Branch, DTP, NCI, 2025):

Tested on: 598228-144-R-J1-PDC complex spheroid viability
Test: Anticancer human tumor 598228-144-R-J1-PDC patient-derived serous endometrial adenocarcinoma cell line growth inhibition [GQUAD]
Conditions: for IC50: curve of first compound; for viability, T/C: stronger effect = lower value; active means viability on the fitted dose curve at most 10% of control; inactive means the rest
Procedure, shortened: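 Tumor cells were grown as complex spheroids with HUVEC endothelial cells and mesenchymal stem cells as stroma. G-quadruplex stabilizers were combined with targeted agents over half-log dilutions from near the clinical Cmax, or from 10 microM.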

[1] = second compound 0.0316 µM, first compound 0.000999 µM
[2] = second compound 0.0316 µM, first compound 0.00316 µM
[3] = second compound 0.0316 µM, first compound 0.00999 µM
[4] = second compound 0.0316 µM, first compound 0.0316 µM
[5] = second compound 0.0316 µM, first compound 0.0999 µM
[6] = second compound 0.0316 µM, first compound 0.316 µM
[7] = second compound 0.1 µM, first compound 0.000999 µM
[8] = second compound 0.1 µM, first compound 0.00316 µM
[9] = second compound 0.1 µM, first compound 0.00999 µM
[10] = second compound 0.1 µM, first compound 0.0316 µM
[11] = second compound 0.1 µM, first compound 0.0999 µM
[12] = second compound 0.1 µM, first compound 0.316 µM
[13] = second compound 0.316 µM, first compound 0.000999 µM
[14] = second compound 0.316 µM, first compound 0.00316 µM
[15] = second compound 0.316 µM, first compound 0.00999 µM
[16] = second compound 0.316 µM, first compound 0.0316 µM
[17] = second compound 0.316 µM, first compound 0.0999 µM
[18] = second compound 0.316 µM, first compound 0.316 µM
[19] = second compound 1 µM, first compound 0.000999 µM
[20] = second compound 1 µM, first compound 0.00316 µM
[21] = second compound 1 µM, first compound 0.00999 µM
[22] = second compound 1 µM, first compound 0.0316 µM
[23] = second compound 1 µM, first compound 0.0999 µM
[24] = second compound 1 µM, first compound 0.316 µM
[25] = second compound 3.16 µM, first compound 0.000999 µM
[26] = second compound 3.16 µM, first compound 0.00316 µM
[27] = second compound 3.16 µM, first compound 0.00999 µM
[28] = second compound 3.16 µM, first compound 0.0316 µM
[29] = second compound 3.16 µM, first compound 0.0999 µM
[30] = second compound 3.16 µM, first compound 0.316 µM
[31] = second compound 10 µM, first compound 0.000999 µM
[32] = second compound 10 µM, first compound 0.00316 µM
[33] = second compound 10 µM, first compound 0.00999 µM
[34] = second compound 10 µM, first compound 0.0316 µM
[35] = second compound 10 µM, first compound 0.0999 µM
[36] = second compound 10 µM, first compound 0.316 µM
[37] = second compound 0.0316 µM, first compound 0.1 µM
[38] = second compound 0.0316 µM, first compound 1 µM
[39] = second compound 0.0316 µM, first compound 3.16 µM
[40] = second compound 0.0316 µM, first compound 10 µM
[41] = second compound 0.1 µM, first compound 0.1 µM
[42] = second compound 0.1 µM, first compound 1 µM
[43] = second compound 0.1 µM, first compound 3.16 µM
[44] = second compound 0.1 µM, first compound 10 µM
[45] = second compound 0.316 µM, first compound 0.1 µM
[46] = second compound 0.316 µM, first compound 1 µM
[47] = second compound 0.316 µM, first compound 3.16 µM
[48] = second compound 0.316 µM, first compound 10 µM
[49] = second compound 1 µM, first compound 0.1 µM
[50] = second compound 1 µM, first compound 1 µM
[51] = second compound 1 µM, first compound 3.16 µM
[52] = second compound 1 µM, first compound 10 µM
[53] = second compound 3.16 µM, first compound 0.1 µM
[54] = second compound 3.16 µM, first compound 1 µM
[55] = second compound 3.16 µM, first compound 3.16 µM
[56] = second compound 3.16 µM, first compound 10 µM
[57] = second compound 10 µM, first compound 0.1 µM
[58] = second compound 10 µM, first compound 1 µM
[59] = second compound 10 µM, first compound 3.16 µM
[60] = second compound 10 µM, first compound 10 µM
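Further: spheroids exposed to the agents for one week before reading.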
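Wherever viability, T/C is given: percent of vehicle DMSO control viability so 100% = untreated growth.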

CC[C@@]1(O)C(=O)OCc2c1cc1n(c2=O)Cc2cc3c(CN(C)C)c(O)ccc3nc2-1 + CN(C)c1ccc(Nc2c3ccc(NC(=O)CCN4CCCC4)cc3nc3cc(NC(=O)CCN4CCCC4)ccc23)cc1
75.7 nM: IC50 (second compound 10 µM)
87 nM: IC50 (second compound 1 µM)
225 nM: IC50 (second compound 3.16 µM)
> 316 nM: IC50 (second compound 0.0316 µM) | IC50 (second compound 0.1 µM)
97.7 nM: IC50 (second compound 0.316 µM)
inactive: viability, T/C [1] 84.4% | viability, T/C [2] 84.2% | viability, T/C [3] 105% | viability, T/C [4] 91.4% | viability, T/C [5] 54.6% | viability, T/C [6] 59.4% | viability, T/C [7] 99.4% | viability, T/C [8] 95.9% | viability, T/C [9] 95.3% | viability, T/C [10] 75.5% | viability, T/C [11] 56.6% | viability, T/C [12] 56.5% | viability, T/C [13] 95.8% | viability, T/C [14] 104% | viability, T/C [15] 101% | viability, T/C [16] 72.8% | viability, T/C [17] 48.5% | viability, T/C [18] 50.5% | viability, T/C [19] 84.3% | viability, T/C [20] 91.8% | viability, T/C [21] 92% | viability, T/C [22] 102% | viability, T/C [23] 42.6% | viability, T/C [24] 45.8% | viability, T/C [25] 97.8% | viability, T/C [26] 89.9% | viability, T/C [27] 86.4% | viability, T/C [28] 94.6% | viability, T/C [29] 57.5% | viability, T/C [30] 46.8% | viability, T/C [31] 66.9% | viability, T/C [32] 90.9% | viability, T/C [33] 81.5% | viability, T/C [34] 62.6% | viability, T/C [35] 48.5% | viability, T/C [36] 42.3%

O=C(c1cc(Cc2n[nH]c(=O)c3ccccc23)ccc1F)N1CCN(C(=O)C2CC2)CC1 + CN(C)c1ccc(Nc2c3ccc(NC(=O)CCN4CCCC4)cc3nc3cc(NC(=O)CCN4CCCC4)ccc23)cc1
> 10000 nM: IC50 (second compound 0.0316 µM) | IC50 (second compound 0.1 µM) | IC50 (second compound 0.316 µM) | IC50 (second compound 1 µM) | IC50 (second compound 3.16 µM) | IC50 (second compound 10 µM)
inactive: viability, T/C [4] 84.9% | viability, T/C [37] 92.6% | viability, T/C [6] 79.7% | viability, T/C [38] 92.9% | viability, T/C [39] 95% | viability, T/C [40] 75.8% | viability, T/C [10] 110% | viability, T/C [41] 101% | viability, T/C [12] 91% | viability, T/C [42] 84.4% | viability, T/C [43] 87.2% | viability, T/C [44] 75.1% | viability, T/C [16] 98% | viability, T/C [45] 85.3% | viability, T/C [18] 96.6% | viability, T/C [46] 91.1% | viability, T/C [47] 93.9% | viability, T/C [48] 65.9% | viability, T/C [22] 82.5% | viability, T/C [49] 93.9% | viability, T/C [24] 103% | viability, T/C [50] 87.5% | viability, T/C [51] 87.4% | viability, T/C [52] 54.1% | viability, T/C [28] 98.8% | viability, T/C [53] 91.8% | viability, T/C [30] 92.8% | viability, T/C [54] 88.3% | viability, T/C [55] 92.9% | viability, T/C [56] 68.3% | viability, T/C [34] 76.4% | viability, T/C [57] 89.3% | viability, T/C [36] 91.9% | viability, T/C [58] 73.8% | viability, T/C [59] 89.7% | viability, T/C [60] 50.3%

Cc1[nH]c2ccccc2c1CCNCc1ccc(/C=C/C(=O)NO)cc1 + Cc1[nH]c2ccc(F)cc2c1-c1nc2c3cccnc3c3ncccc3c2[nH]1
inactive: viability, T/C [1] 110% | viability, T/C [2] 115% | viability, T/C [3] 131% | viability, T/C [4] 82.5% | viability, T/C [5] 28% | viability, T/C [7] 111% | viability, T/C [8] 108% | viability, T/C [9] 103% | viability, T/C [10] 77.8% | viability, T/C [11] 31.4% | viability, T/C [13] 107% | viability, T/C [14] 108% | viability, T/C [15] 90.2% | viability, T/C [16] 73.5% | viability, T/C [17] 30.1% | viability, T/C [19] 71.8% | viability, T/C [20] 58% | viability, T/C [21] 62.6% | viability, T/C [22] 47.1% | viability, T/C [23] 22.4% | viability, T/C [25] 32.2% | viability, T/C [26] 32.8% | viability, T/C [27] 41.1% | viability, T/C [28] 32.7% | viability, T/C [29] 25.1% | viability, T/C [31] 84.1% | viability, T/C [32] 64.8% | viability, T/C [33] 79.1% | viability, T/C [34] 48.3% | viability, T/C [35] 33.6%
62.9 nM: IC50 (second compound 0.0316 µM)
58 nM: IC50 (second compound 0.316 µM)
63 nM: IC50 (second compound 0.1 µM)
23.9 nM: IC50 (second compound 1 µM)
active: viability, T/C [6] 0.83% | viability, T/C [12] 1.46% | viability, T/C [18] 0.7% | viability, T/C [24] 0.79% | viability, T/C [30] 0.97% | viability, T/C [36] 0.53%
39.1 nM: IC50 (second compound 10 µM)
< 0.999 nM: IC50 (second compound 3.16 µM)

Nc1ccn(C2OC(CO)C(O)C2(F)F)c(=O)n1 (stereo not drawn) + CN(C)c1ccc(Nc2c3ccc(NC(=O)CCN4CCCC4)cc3nc3cc(NC(=O)CCN4CCCC4)ccc23)cc1
< 31.6 nM: IC50 (second compound 0.0316 µM) | IC50 (second compound 0.1 µM) | IC50 (second compound 10 µM)
inactive: viability, T/C [4] 49.8% | viability, T/C [37] 42.5% | viability, T/C [6] 39.4% | viability, T/C [38] 36.3% | viability, T/C [39] 39.8% | viability, T/C [40] 37.5% | viability, T/C [10] 52.4% | viability, T/C [41] 41.9% | viability, T/C [12] 38.6% | viability, T/C [42] 43.2% | viability, T/C [43] 57.3% | viability, T/C [44] 49.5% | viability, T/C [16] 49.3% | viability, T/C [45] 51.6% | viability, T/C [18] 43.3% | viability, T/C [46] 43.2% | viability, T/C [47] 45.8% | viability, T/C [48] 43.6% | viability, T/C [22] 60.8% | viability, T/C [49] 51.3% | viability, T/C [24] 35.4% | viability, T/C [50] 33.1% | viability, T/C [51] 41.5% | viability, T/C [52] 43.4% | viability, T/C [28] 58.8% | viability, T/C [53] 45.5% | viability, T/C [30] 49.7% | viability, T/C [54] 37.5% | viability, T/C [55] 45.6% | viability, T/C [56] 36.4% | viability, T/C [34] 44.1% | viability, T/C [57] 28.5% | viability, T/C [36] 29.6% | viability, T/C [58] 26.2% | viability, T/C [59] 24% | viability, T/C [60] 26.9%
38.9 nM: IC50 (second compound 0.316 µM)
75.5 nM: IC50 (second compound 1 µM)
91.7 nM: IC50 (second compound 3.16 µM)
